Reference: US8877736B2, “Method for treating keloid by administering 3′sialyllactose or 6′sialyllactose as a pharmaceutical or cosmetic” (Benebiosis Co., Ltd., priority 2009, dated 2014)
Entries after “also recorded” stand apart in the source; their conditions may differ.

How the values were obtained:
Format in all cases: cell-based
[1] = test system: Human keloid fibroblasts (CRL 1762); assay: Cell counting of keloid fibroblasts (trypan blue); details: 1 mM, up to 12 days, compared with negative control (PBS), FIG. 1
Procedure: (§1) Human keloid fibroblasts (CRL 1762) were purchased from ATCC. Medium has the following composition: DMEM (Dulbecco's Modified Eagle's Medium), 4 mM L-glutamine, 100 μg/ml streptomycin, 100 U/ml penicillin and 10% fetal bovine serum. The fibroblasts were incubated at 37° C. in a CO2 incubator under humid atmosphere (5% CO2, 95% air). Medium was replaced every 3-4 days.
Keloid fibroblasts (KF) were plated at 5×10^4 cells/well in a 6-well plate. 24 hours later, KF was incubated with 1 mM 3′-sialyllactose (3′-SL), 6′-sialyllactose (6′-SL) or excipient (Phosphate buffered saline, PBS). 3′-Sialyllactose (3′-N-Acetylneuraminyl-D-lactose, 3′-Sialyl-D-lactose or α-NeuNAc-(2→3)-β-D-Gal-(1→4)-D-Glc) or 6′-sialyllactose (6′-N-Acetylneuraminyl-lactose, 6′-Sialyl-D-lactose, or α-NeuNAc-(2→6)-β-D-Gal-(1→4)-D-Glc) were purchased from Sigma-Aldrich. After 0, 1, 5, 7, 9, and 12 days, KF was collected using trypsin-EDTA and stained with trypan blue, followed by cell counting using a blood cell counter (C-Chip DHC N15, Incyto).

[2] = test system: Human keloid fibroblasts (CRL 1762); assay: XTT cell proliferation analysis of keloid fibroblasts; details: 1 mM, 0-5 days, compared with negative control (PBS), FIG. 2
Procedure: as §1
The rate of cell proliferation was measured using Roche's Cell Proliferation Kit II (XTT) system. Keloid fibroblasts (KF) were plated at 2.0×10^3 cells/well in a 96-well plate and then treated 3′-SL, 6′-SL and PBS at a concentration of 1 mM, respectively. After 0, 1, 3 and 5 days, KF was incubated with 50 μl/well of XTT (sodium 3′-[1-(phenylaminocarbonyl)-3,4-tetrazolium]-bis(4-methoxy-6-nitro) benzene sulfonic acid hydrate) reagent for 4 hr at 37° C. and the absorbance at 470 nm was measured using a microplate reader. The relative survival rates of groups treated with sialyllactose were calculated with reference to untreated sialyllactose group (i.e., excipient treatment group, 100% survival rate).

[3] = test system: Human keloid fibroblasts (CRL 1762); assay: TUNEL analysis of apoptosis of keloid fibroblasts; details: 1 mM, 0-5 days, FIG. 3
Procedure: as §1
Using in situ cell death detection kit (TUNEL, Roche Diagnostics), apoptosis was analyzed and DNA fragmentation in keloid fibroblasts was quantified. A single layer of keloid fibroblasts was cultured directly in a tissue culture flask and then incubated with 1 mM 3′-SL, 6′-SL or PBS. Following 0, 1, 3 and 5 days, the analysis was carried out according to the manufacturer's manual.

RAW 264.7 cells = assay: Cytotoxicity analysis, MTT assay on RAW 264.7 cells; details: 0.001, 0.01, 0.1 and 1 mM, 5 days, compared with negative control (PBS), FIGS. 4a-4b
Procedure: Cytotoxicity of sialyllactose to cells other than keloid fibroblasts was analyzed RAW 264.7 cells (TIB-71) were purchased from ATCC. Dulbecco's Modified Eagle's Medium (DMEM) was purchased from JBI and supplemented with 100 U/ml penicillin, 100 μg/ml streptomycin, and 10% fetal bovine serum (FBS). Medium was replaced every 3-4 days. The cells were incubated at 37° C. in a CO2 incubator. For investigation of cell proliferation rate, MTT quantification was performed. RAW 264.7 cells were plated at 2.0×10^3 cells/well in a 96-well plate and 3′-SL or 6′-SL was treated at a concentration of 0.001, 0.01, 0.1, and 1 mM. A negative control group was treated with PBS. After 5 days, the cells were incubated with 500 μg/ml MTT solution for 4 hr at 37° C. […], the absorbance at 540 nm was measured using formazan in diumsulfoxide (DMSO). The relative survival rates of groups treated with sialyllactose were calculated with reference to untreated sialyllactose group (i.e., PBS treatment group, 100% survival rate).

SMILES | growth of keloid fibroblasts (cell counting) [1] | proliferation of keloid fibroblasts (XTT; text says MTT analysis) [2] | apoptosis of keloid fibroblasts (TUNEL) [3] | proliferation of RAW 264.7 cells (MTT) (RAW 264.7 cells) | apoptosis of keloid fibroblasts (TUNEL) ([3]; listed as 6′ SL)
CC(=O)N[C@H]1[C@H]([C@H](O)[C@H](O)CO)O[C@@](O[C@H]2[C@@H](O)[C@@H](CO)O[C@@H](O[C@H]3[C@H](O)[C@@H](O)C(O)O[C@@H]3CO)[C@@H]2O)(C(=O)O)C[C@@H]1O (stereo partly drawn) [3′-SL, α-NeuNAc-(2→3)-β-D-Gal-(1→4)-D-Glc] | considerably inhibited | considerably inhibited | induced | not affected | 
CC(=O)N[C@H]1[C@H]([C@H](O)[C@H](O)CO)O[C@@](OC[C@H]2O[C@@H](O[C@H]3[C@H](O)[C@@H](O)[C@H](O)O[C@@H]3CO)[C@H](O)[C@@H](O)[C@H]2O)(C(=O)O)C[C@@H]1O [6′-SL, α-NeuNAc-(2→6)-β-D-Gal-(1→4)-D-Glc] | considerably inhibited; also recorded: more significantly inhibited by 6′-SL than the 3′-SL | considerably inhibited; also recorded: more significantly inhibited by 6′-SL than the 3′-SL | more significantly inhibited by 6′-SL than the 3′-SL | not affected | induced
